Measured values: US20240382629A1, “HETEROBIVALENT AND HOMOBIVALENT AGENTS TARGETING FIBROBLAST ACTIVATION PROTEIN ALPHA AND/OR PROSTATE-SPECIFIC MEMBRANE ANTIGEN” (The Johns Hopkins University, priority 2021, published 2024)

Tested on: U87 tumor
Assay: Biodistribution ([^18F]JHU1221823), carrier / specific activity study
Type: in vivo, mouse
From the text: Biodistribution of Representative Compounds

[1] = mean (one mouse), NOD/SCID, U87 tumor, Carrier 700, 60 min post injection
[2] = mean, + 0.05 nmole carrier, 60 min post injection
[3] = mean, + 0.1 nmole carrier, 60 min post injection
[4] = mean, + 0.25 nmole carrier, 60 min post injection
[5] = mean, NOD/SCID, U87 tumor, Carrier 350 (350 mCi/μmol), 60 min post injection
[6] = mean, Nude mice, U87 tumor, Baseline (~5000 mCi/μmol), 60 min post injection
[7] = mean, Nude mice, U87 tumor, Carrier 350 (350 mCi/μmol), 60 min post injection
[8] = mean, Nude mice, U87 tumor, Carrier 700, 60 min post injection
[9] = mean, U87 tumor, Baseline, second block (stands before <NOD/SCID> heading), 60 min post injection

N#C[C@@H]1CCCN1C(=O)CNC(=O)c1ccnc2ccc(OCCCNC(=O)CCOCCOCCOCCOCCNC(=O)[C@H](CCCCNC(=O)c3ccc([18F])nc3)NC(=O)CN3CCN(CC(=O)O)CCN(CC(=O)O)CCN(CC(=O)O)CC3)cc12 [[^18F]JHU1221823]
Bladder % ID/g [1]: 8.20 % ID/g | Blood % ID/g [1]: 5.82 % ID/g | Brain % ID/g [1]: 0.16 % ID/g | Fat % ID/g [1]: 0.90 % ID/g | Femur % ID/g [1]: 2.41 % ID/g | Heart % ID/g [1]: 3.48 % ID/g | Kidney % ID/g [1]: 2.45 % ID/g | Large intestine % ID/g [1]: 2.26 % ID/g | Liver % ID/g [1]: 2.36 % ID/g | Lung % ID/g [1]: 3.56 % ID/g | Muscle % ID/g [1]: 1.99 % ID/g | Pancreas % ID/g [1]: 13.03 % ID/g | Salivary gland % ID/g [1]: 11.31 % ID/g | Small intestine % ID/g [1]: 3.48 % ID/g | Spleen % ID/g [1]: 1.46 % ID/g | Stomach % ID/g [1]: 1.64 % ID/g | Tumor % ID/g [1]: 7.79 % ID/g | Bladder % ID/g (mean, + 0.01 nmole carrier): 2.00 % ID/g | Blood % ID/g (mean, + 0.01 nmole carrier): 11.29 % ID/g | Brain % ID/g (mean, + 0.01 nmole carrier): 0.30 % ID/g | Fat % ID/g (mean, + 0.01 nmole carrier): 0.34 % ID/g | Femur % ID/g (mean, + 0.01 nmole carrier): 3.53 % ID/g | Heart % ID/g (mean, + 0.01 nmole carrier): 4.62 % ID/g | Kidney % ID/g (mean, + 0.01 nmole carrier): 2.96 % ID/g | Large intestine % ID/g (mean, + 0.01 nmole carrier): 1.62 % ID/g | Liver % ID/g (mean, + 0.01 nmole carrier): 3.09 % ID/g | Lung % ID/g (mean, + 0.01 nmole carrier): 6.15 % ID/g | Muscle % ID/g (mean, + 0.01 nmole carrier): 1.88 % ID/g | Pancreas % ID/g (mean, + 0.01 nmole carrier): 4.07 % ID/g | Salivary gland % ID/g (mean, + 0.01 nmole carrier): 7.47 % ID/g | Small intestine % ID/g (mean, + 0.01 nmole carrier): 2.20 % ID/g | Spleen % ID/g (mean, + 0.01 nmole carrier): 2.01 % ID/g | Stomach % ID/g (mean, + 0.01 nmole carrier): 1.49 % ID/g | Tumor % ID/g (mean, + 0.01 nmole carrier): 2.37 % ID/g | Bladder % ID/g [2]: 4.29 % ID/g | Blood % ID/g [2]: 7.55 % ID/g | Brain % ID/g [2]: 0.21 % ID/g | Fat % ID/g [2]: 0.78 % ID/g | Femur % ID/g [2]: 3.25 % ID/g | Heart % ID/g [2]: 3.03 % ID/g | Kidney % ID/g [2]: 2.29 % ID/g | Large intestine % ID/g [2]: 1.53 % ID/g | Liver % ID/g [2]: 2.13 % ID/g | Lung % ID/g [2]: 4.10 % ID/g | Muscle % ID/g [2]: 1.83 % ID/g | Pancreas % ID/g [2]: 5.35 % ID/g | Salivary gland % ID/g [2]: 10.93 % ID/g | Small intestine % ID/g [2]: 1.82 % ID/g | Spleen % ID/g [2]: 1.50 % ID/g | Stomach % ID/g [2]: 1.27 % ID/g | Tumor % ID/g [2]: 3.42 % ID/g | Bladder % ID/g [3]: 1.75 % ID/g | Blood % ID/g [3]: 4.10 % ID/g | Brain % ID/g [3]: 0.12 % ID/g | Fat % ID/g [3]: 1.65 % ID/g | Femur % ID/g [3]: 3.72 % ID/g | Heart % ID/g [3]: 1.84 % ID/g | Kidney % ID/g [3]: 2.01 % ID/g | Large intestine % ID/g [3]: 2.35 % ID/g | Liver % ID/g [3]: 1.16 % ID/g | Lung % ID/g [3]: 2.57 % ID/g | Muscle % ID/g [3]: 1.97 % ID/g | Pancreas % ID/g [3]: 4.67 % ID/g | Salivary gland % ID/g [3]: 8.31 % ID/g | Small intestine % ID/g [3]: 1.64 % ID/g | Spleen % ID/g [3]: 0.96 % ID/g | Stomach % ID/g [3]: 1.00 % ID/g | Tumor % ID/g [3]: 5.08 % ID/g | Bladder % ID/g [4]: 2.51 % ID/g | Blood % ID/g [4]: 1.90 % ID/g | Brain % ID/g [4]: 0.08 % ID/g | Fat % ID/g [4]: 0.51 % ID/g | Femur % ID/g [4]: 4.26 % ID/g | Heart % ID/g [4]: 0.91 % ID/g | Kidney % ID/g [4]: 1.92 % ID/g | Large intestine % ID/g [4]: 0.65 % ID/g | Liver % ID/g [4]: 0.75 % ID/g | Lung % ID/g [4]: 1.37 % ID/g | Muscle % ID/g [4]: 1.25 % ID/g | Pancreas % ID/g [4]: 1.77 % ID/g | Salivary gland % ID/g [4]: 3.31 % ID/g | Small intestine % ID/g [4]: 0.91 % ID/g | Spleen % ID/g [4]: 0.46 % ID/g | Stomach % ID/g [4]: 0.69 % ID/g | Tumor % ID/g [4]: 3.52 % ID/g | Bladder % ID/g [5]: 4.33 % ID/g | Blood % ID/g [5]: 4.14 % ID/g | Brain % ID/g [5]: 0.09 % ID/g | Fat % ID/g [5]: 0.85 % ID/g | Femur % ID/g [5]: 3.43 % ID/g | Heart % ID/g [5]: 2.14 % ID/g | Kidney % ID/g [5]: 2.13 % ID/g | Large intestine % ID/g [5]: 2.08 % ID/g | Liver % ID/g [5]: 1.76 % ID/g | Lung % ID/g [5]: 2.74 % ID/g | Muscle % ID/g [5]: 2.03 % ID/g | Pancreas % ID/g [5]: 10.18 % ID/g | Salivary gland % ID/g [5]: 9.49 % ID/g | Small intestine % ID/g [5]: 2.29 % ID/g | Spleen % ID/g [5]: 1.80 % ID/g | Stomach % ID/g [5]: 1.47 % ID/g | Tumor % ID/g [5]: 8.64 % ID/g | Bladder % ID/g [6]: 2.38 % ID/g | Blood % ID/g [6]: 11.46 % ID/g | Brain % ID/g [6]: 0.23 % ID/g | Fat % ID/g [6]: 0.99 % ID/g | Femur % ID/g [6]: 2.41 % ID/g | Heart % ID/g [6]: 5.54 % ID/g | Kidney % ID/g [6]: 2.91 % ID/g | Large intestine % ID/g [6]: 1.40 % ID/g | Liver % ID/g [6]: 3.31 % ID/g | Lung % ID/g [6]: 6.97 % ID/g | Muscle % ID/g [6]: 1.75 % ID/g | Pancreas % ID/g [6]: 3.36 % ID/g | Salivary gland % ID/g [6]: 6.91 % ID/g | Small intestine % ID/g [6]: 2.70 % ID/g | Spleen % ID/g [6]: 2.06 % ID/g | Stomach % ID/g [6]: 1.23 % ID/g | Tumor % ID/g [6]: 2.33 % ID/g | Bladder % ID/g [7]: 1.73 % ID/g | Blood % ID/g [7]: 5.84 % ID/g | Brain % ID/g [7]: 0.14 % ID/g | Fat % ID/g [7]: 0.89 % ID/g | Femur % ID/g [7]: 4.15 % ID/g | Heart % ID/g [7]: 2.50 % ID/g | Kidney % ID/g [7]: 2.07 % ID/g | Large intestine % ID/g [7]: 1.76 % ID/g | Liver % ID/g [7]: 1.90 % ID/g | Lung % ID/g [7]: 3.45 % ID/g | Muscle % ID/g [7]: 2.41 % ID/g | Pancreas % ID/g [7]: 6.29 % ID/g | Salivary gland % ID/g [7]: 11.15 % ID/g | Small intestine % ID/g [7]: 2.42 % ID/g | Spleen % ID/g [7]: 1.29 % ID/g | Stomach % ID/g [7]: 1.56 % ID/g | Tumor % ID/g [7]: 2.27 % ID/g | Bladder % ID/g [8]: 2.23 % ID/g | Blood % ID/g [8]: 9.94 % ID/g | Brain % ID/g [8]: 0.20 % ID/g | Fat % ID/g [8]: 0.49 % ID/g | Femur % ID/g [8]: 3.06 % ID/g | Heart % ID/g [8]: 4.65 % ID/g | Kidney % ID/g [8]: 2.53 % ID/g | Large intestine % ID/g [8]: 1.62 % ID/g | Liver % ID/g [8]: 2.81 % ID/g | Lung % ID/g [8]: 5.57 % ID/g | Muscle % ID/g [8]: 2.07 % ID/g | Pancreas % ID/g [8]: 3.91 % ID/g | Salivary gland % ID/g [8]: 8.13 % ID/g | Small intestine % ID/g [8]: 2.18 % ID/g | Spleen % ID/g [8]: 1.72 % ID/g | Stomach % ID/g [8]: 1.37 % ID/g | Tumor % ID/g [8]: 2.01 % ID/g | Bladder % ID/g [9]: 6.92 % ID/g | Blood % ID/g [9]: 10.99 % ID/g | Brain % ID/g [9]: 0.22 % ID/g | Fat % ID/g [9]: 0.62 % ID/g | Femur % ID/g [9]: 2.37 % ID/g | Heart % ID/g [9]: 6.95 % ID/g | Kidney % ID/g [9]: 3.41 % ID/g | Large intestine % ID/g [9]: 2.18 % ID/g | Liver % ID/g [9]: 4.38 % ID/g | Lung % ID/g [9]: 7.03 % ID/g | Muscle % ID/g [9]: 1.64 % ID/g | Pancreas % ID/g [9]: 8.17 % ID/g | Salivary gland % ID/g [9]: 11.89 % ID/g | Small intestine % ID/g [9]: 3.66 % ID/g | Spleen % ID/g [9]: 2.16 % ID/g | Stomach % ID/g [9]: 1.81 % ID/g | Tumor % ID/g [9]: 3.08 % ID/g | Bladder % ID/g (mean, carrier not given): 4.53 % ID/g | Blood % ID/g (mean, carrier not given): 9.54 % ID/g | Brain % ID/g (mean, carrier not given): 0.22 % ID/g | Fat % ID/g (mean, carrier not given): 1.07 % ID/g | Femur % ID/g (mean, carrier not given): 2.83 % ID/g | Heart % ID/g (mean, carrier not given): 4.65 % ID/g | Kidney % ID/g (mean, carrier not given): 2.73 % ID/g | Large intestine % ID/g (mean, carrier not given): 1.49 % ID/g | Liver % ID/g (mean, carrier not given): 2.99 % ID/g | Lung % ID/g (mean, carrier not given): 5.72 % ID/g | Muscle % ID/g (mean, carrier not given): 1.78 % ID/g | Pancreas % ID/g (mean, carrier not given): 2.14 % ID/g | Salivary gland % ID/g (mean, carrier not given): 6.93 % ID/g | Small intestine % ID/g (mean, carrier not given): 3.02 % ID/g | Spleen % ID/g (mean, carrier not given): 2.15 % ID/g | Stomach % ID/g (mean, carrier not given): 1.14 % ID/g | Tumor % ID/g (mean, carrier not given): 5.71 % ID/g
